Results from patent US11945798B2, “Substituted aminopyridine compounds as EGFR inhibitors” (YUHAN CORPORATION, priority 2021, dated 2024).
Like-named read-outs stand apart in the source and are kept apart here.

Columns and labels:
EGFR del19/T790M/C797S = EGFR del19/T790M/C797S (Homo sapiens, UniProt P00533, C797S/DEL746-750/T790M); assay: Biochemical EGFR kinase assay (Lance Ultra TR-FRET), del19/T790M/C797S
Procedure, shortened: (§1)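 In this biochemical assay, phosphorylation after a one-hour room-temperature reaction was detected with europium-labelled anti-phosphopeptide antibody at 2 nM final concentration.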

EGFR L858R/T790M/C797S = EGFR L858R/T790M/C797S (Homo sapiens, UniProt P00533, C797S/L858R/T790M); assay: Biochemical EGFR kinase assay (Lance Ultra TR-FRET), L858R/T790M/C797S
Procedure, shortened: as §1

EGFR del19/C797S = EGFR del19/C797S (Homo sapiens, UniProt P00533, C797S/DEL746-750); assay: Biochemical EGFR kinase assay (Lance Ultra TR-FRET), del19/C797S
Chain of EGFR del19/C797S (P00533 with tags, fused parts or gaps DEL746-750/C797S): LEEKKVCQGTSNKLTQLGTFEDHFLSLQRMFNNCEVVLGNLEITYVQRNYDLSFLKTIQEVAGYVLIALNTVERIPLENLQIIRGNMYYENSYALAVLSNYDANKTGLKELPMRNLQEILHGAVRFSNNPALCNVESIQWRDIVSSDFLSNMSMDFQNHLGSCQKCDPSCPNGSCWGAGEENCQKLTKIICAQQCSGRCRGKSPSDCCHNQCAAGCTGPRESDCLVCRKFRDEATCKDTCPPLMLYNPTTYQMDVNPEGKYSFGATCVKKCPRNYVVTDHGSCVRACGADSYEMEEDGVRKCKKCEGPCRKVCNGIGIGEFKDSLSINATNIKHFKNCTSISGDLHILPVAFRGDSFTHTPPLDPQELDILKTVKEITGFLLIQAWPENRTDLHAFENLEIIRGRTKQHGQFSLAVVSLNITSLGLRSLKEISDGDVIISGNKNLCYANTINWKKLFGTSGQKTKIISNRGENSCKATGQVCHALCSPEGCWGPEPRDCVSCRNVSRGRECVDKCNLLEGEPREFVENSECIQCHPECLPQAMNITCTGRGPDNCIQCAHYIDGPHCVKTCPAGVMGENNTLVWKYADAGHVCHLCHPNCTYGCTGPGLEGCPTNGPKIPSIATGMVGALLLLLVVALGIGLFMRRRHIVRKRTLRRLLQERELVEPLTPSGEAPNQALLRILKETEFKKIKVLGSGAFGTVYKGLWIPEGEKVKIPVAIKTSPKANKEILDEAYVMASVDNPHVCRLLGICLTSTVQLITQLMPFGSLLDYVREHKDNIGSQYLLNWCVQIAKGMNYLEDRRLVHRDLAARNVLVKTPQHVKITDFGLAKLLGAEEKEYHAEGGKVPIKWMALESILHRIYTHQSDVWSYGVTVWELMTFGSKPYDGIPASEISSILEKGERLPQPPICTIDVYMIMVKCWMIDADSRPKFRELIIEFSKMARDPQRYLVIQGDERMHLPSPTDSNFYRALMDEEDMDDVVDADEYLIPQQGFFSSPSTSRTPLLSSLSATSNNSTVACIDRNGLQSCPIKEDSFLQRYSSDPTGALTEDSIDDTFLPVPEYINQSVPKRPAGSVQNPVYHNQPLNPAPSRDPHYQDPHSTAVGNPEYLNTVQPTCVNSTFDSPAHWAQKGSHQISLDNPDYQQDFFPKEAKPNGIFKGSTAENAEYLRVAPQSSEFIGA
Procedure, shortened: as §1

EGFR L858R/C797S = EGFR L858R/C797S (Homo sapiens, UniProt P00533, C797S/L858R); assay: Biochemical EGFR kinase assay (Lance Ultra TR-FRET), L858R/C797S
Chain of EGFR L858R/C797S (P00533 25-1210 C797S/L858R): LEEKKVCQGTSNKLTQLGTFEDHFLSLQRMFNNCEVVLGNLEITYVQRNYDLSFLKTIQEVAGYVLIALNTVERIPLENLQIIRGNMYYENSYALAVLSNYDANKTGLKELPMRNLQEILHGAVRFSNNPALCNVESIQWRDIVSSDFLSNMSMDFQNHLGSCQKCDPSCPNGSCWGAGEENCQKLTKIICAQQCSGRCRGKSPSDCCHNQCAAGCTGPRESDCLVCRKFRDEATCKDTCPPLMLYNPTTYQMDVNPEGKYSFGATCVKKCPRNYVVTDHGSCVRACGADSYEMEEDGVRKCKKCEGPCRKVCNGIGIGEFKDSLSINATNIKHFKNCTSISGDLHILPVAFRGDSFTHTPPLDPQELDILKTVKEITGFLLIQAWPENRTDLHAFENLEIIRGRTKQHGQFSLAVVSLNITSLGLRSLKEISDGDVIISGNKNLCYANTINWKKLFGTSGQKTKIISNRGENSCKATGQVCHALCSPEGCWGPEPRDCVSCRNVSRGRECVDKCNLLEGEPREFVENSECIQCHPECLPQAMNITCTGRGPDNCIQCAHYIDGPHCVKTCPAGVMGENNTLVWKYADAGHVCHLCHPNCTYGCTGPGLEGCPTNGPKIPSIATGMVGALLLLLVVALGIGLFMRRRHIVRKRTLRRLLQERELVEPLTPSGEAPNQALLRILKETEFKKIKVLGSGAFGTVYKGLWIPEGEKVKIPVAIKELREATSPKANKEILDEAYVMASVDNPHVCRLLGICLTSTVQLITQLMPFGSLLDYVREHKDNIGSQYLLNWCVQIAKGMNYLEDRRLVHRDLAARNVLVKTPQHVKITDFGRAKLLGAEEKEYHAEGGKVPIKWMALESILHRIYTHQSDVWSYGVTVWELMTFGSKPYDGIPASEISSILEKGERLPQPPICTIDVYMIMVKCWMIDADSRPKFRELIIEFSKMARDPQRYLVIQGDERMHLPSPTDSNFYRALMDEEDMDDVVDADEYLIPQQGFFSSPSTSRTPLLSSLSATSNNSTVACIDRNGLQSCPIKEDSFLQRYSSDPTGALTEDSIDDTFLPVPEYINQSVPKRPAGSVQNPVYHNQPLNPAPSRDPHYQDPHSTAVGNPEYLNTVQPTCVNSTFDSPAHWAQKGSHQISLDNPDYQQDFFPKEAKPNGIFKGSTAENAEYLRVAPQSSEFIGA
Procedure: Biochemical EGFR kinase assays were conducted using Lance Ultra time-resolved fluorescence resonance energy transfer (TR-FRET) technology from Perkin-Elmer. Compounds of the invention were initially diluted to 20 mM in 100% DMSO for storage and made into kinase buffer solution to create a compound concentration ranging from 0.003 μM and 10 μM.
Each kinase reactions were incubated at room temperature for 1 hour and then stopped by the addition of 4 μL of stop solution (10 mM EDTA). The specific Europium-labeled-anti-phosphopeptide antibody (PerkinElmer, AD0069) diluted in LANCE detection buffer was then added to a final concentration of 2 nM. After 60 minutes incubation at room temperature the LANCE signal was measured on an EnVision Multilabel Reader (Perkin-Elmer). Excitation wavelength was set at 320 nm and emission monitored at 615 nm (donor) and 665 nm (acceptor). The IC50 values were determined using GraphPad prism software (GraphPad Software, Inc., San Diego, CA, USA).

EGFR wildtype (WT) = EGFR wildtype (WT) (Homo sapiens, UniProt P00533); assay: Biochemical EGFR kinase assay (Lance Ultra TR-FRET), wildtype
Chain of EGFR wildtype (WT) (P00533 25-1210): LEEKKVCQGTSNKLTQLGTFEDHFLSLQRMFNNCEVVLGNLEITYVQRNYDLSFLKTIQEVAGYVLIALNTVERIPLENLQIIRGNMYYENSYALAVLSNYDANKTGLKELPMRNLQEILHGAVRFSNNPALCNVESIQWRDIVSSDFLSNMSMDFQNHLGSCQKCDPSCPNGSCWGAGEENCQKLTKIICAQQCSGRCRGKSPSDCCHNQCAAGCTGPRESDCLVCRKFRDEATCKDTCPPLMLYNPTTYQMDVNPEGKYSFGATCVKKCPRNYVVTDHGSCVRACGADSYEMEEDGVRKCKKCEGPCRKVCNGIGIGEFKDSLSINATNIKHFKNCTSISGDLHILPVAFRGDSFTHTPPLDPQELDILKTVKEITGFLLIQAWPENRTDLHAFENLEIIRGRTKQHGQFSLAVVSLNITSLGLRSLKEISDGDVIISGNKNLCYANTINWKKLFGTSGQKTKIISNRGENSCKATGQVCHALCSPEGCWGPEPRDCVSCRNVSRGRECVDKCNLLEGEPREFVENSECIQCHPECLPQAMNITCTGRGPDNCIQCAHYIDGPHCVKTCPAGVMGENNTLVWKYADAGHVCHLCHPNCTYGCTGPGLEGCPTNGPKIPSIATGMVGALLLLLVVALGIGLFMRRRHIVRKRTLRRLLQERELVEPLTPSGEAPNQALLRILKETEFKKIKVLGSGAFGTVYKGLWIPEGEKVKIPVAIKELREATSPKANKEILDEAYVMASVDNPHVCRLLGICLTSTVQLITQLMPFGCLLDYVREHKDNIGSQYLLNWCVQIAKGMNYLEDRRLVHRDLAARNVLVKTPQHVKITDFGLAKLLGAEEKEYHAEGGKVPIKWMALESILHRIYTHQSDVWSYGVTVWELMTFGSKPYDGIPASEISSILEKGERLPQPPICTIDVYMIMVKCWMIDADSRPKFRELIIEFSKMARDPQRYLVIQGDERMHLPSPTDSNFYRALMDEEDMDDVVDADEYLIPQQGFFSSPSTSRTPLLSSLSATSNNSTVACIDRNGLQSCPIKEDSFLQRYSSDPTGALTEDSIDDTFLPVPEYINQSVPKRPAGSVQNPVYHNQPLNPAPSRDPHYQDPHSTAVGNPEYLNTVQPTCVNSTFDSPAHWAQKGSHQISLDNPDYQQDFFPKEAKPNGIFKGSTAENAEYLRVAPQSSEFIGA
Procedure, shortened: as §1

[1] = Km ATP, read-out: IC50 del19/T790M/C797S (nM) Km ATP
[2] = Km ATP, read-out: IC50 L858R/T790M/C797S (nM) Km ATP
[3] = Km ATP, read-out: IC50 del19/C797S (nM) Km ATP
[4] = Km ATP, read-out: IC50 L858R/C797S (nM) Km ATP
[5] = Km ATP, read-out: IC50 WT (nM) Km ATP
[6] = IC50 del19/T790M/C797S (nM) 100 μM ATP, 100 μM ATP
[7] = IC50 L858R/T790M/C797S (nM) 100 μM ATP, 100 μM ATP
[8] = IC50 del19/C797S (nM) 100 μM ATP, 100 μM ATP
[9] = IC50 L858R/C797S (nM) 100 μM ATP, 100 μM ATP
[10] = IC50 WT (nM) 100 μM ATP, 100 μM ATP

Chain of EGFR del19/T790M/C797S (P00533 with tags, fused parts or gaps DEL746-750/T790M/C797S): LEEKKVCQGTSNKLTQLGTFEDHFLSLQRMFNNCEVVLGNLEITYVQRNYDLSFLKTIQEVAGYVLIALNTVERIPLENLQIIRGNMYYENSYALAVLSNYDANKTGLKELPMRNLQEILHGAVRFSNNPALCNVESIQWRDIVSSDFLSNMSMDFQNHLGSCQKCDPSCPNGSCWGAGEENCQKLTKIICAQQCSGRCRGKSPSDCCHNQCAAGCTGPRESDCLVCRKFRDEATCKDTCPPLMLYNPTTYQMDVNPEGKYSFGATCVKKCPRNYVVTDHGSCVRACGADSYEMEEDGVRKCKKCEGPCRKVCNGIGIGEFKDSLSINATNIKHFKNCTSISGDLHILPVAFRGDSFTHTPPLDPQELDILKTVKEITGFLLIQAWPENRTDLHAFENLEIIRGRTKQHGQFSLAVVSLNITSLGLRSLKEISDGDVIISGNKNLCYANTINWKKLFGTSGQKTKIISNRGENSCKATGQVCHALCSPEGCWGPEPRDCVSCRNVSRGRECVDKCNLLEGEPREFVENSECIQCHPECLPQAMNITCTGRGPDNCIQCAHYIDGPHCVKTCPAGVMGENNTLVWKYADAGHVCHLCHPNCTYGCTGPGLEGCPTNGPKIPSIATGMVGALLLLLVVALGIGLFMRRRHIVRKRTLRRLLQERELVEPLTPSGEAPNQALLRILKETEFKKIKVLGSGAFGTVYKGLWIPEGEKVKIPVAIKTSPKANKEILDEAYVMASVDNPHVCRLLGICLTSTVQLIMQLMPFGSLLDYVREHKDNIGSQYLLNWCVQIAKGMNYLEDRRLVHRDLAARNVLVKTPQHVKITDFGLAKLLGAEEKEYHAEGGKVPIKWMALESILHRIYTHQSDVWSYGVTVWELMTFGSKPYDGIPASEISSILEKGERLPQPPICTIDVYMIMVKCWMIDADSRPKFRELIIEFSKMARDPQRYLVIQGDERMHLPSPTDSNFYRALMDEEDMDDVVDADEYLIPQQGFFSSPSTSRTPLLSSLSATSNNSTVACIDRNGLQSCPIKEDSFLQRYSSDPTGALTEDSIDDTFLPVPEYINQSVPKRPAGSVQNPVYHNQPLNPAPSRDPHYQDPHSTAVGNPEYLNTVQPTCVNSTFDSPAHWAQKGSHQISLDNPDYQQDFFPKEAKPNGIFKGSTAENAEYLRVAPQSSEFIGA

| Structure (SMILES) | IC50 (EGFR del19/T790M/C797S; [1]) [nM] | IC50 (EGFR L858R/T790M/C797S; [2]) [nM] | IC50 (EGFR del19/C797S; [3]) [nM] | IC50 (EGFR L858R/C797S; [4]) [nM] | IC50 (EGFR wildtype (WT); [5]) [nM] | IC50 (EGFR del19/T790M/C797S; [6]) [nM] | IC50 (EGFR L858R/T790M/C797S; [7]) [nM] | IC50 (EGFR del19/C797S; [8]) [nM] | IC50 (EGFR L858R/C797S; [9]) [nM] | IC50 (EGFR wildtype (WT); [10]) [nM] |
| --- | --- | --- | --- | --- | --- | --- | --- | --- | --- | --- |
| O=C(c1cnc(Nc2ccnc(-c3cnn(S(=O)(=O)C4CC4)c3)n2)cc1NC[C@H]1CC[C@H](Cn2ccnc2)CC1)C1CC1 [Example 43, (4-((((1r,4r)-4-((1H-Imidazol-1-yl)methyl)cyclohexyl)methyl)amino)-6-((2-(1-(cyclopropylsulfonyl)-1H-pyrazol-4-yl)pyrimidin-4-yl)amino)pyridin-3-yl)(cyclopropyl)methanone] | 1.3 | 0.5 | 10.5 | 24 | 64.1 |  |  |  |  |  |
| O=C(NCCF)c1cnc(Nc2ccnc(-c3cnn(S(=O)(=O)C4CC4)c3)n2)cc1N[C@H]1CC[C@@H](NCCF)CC1 [Example 77, 6-((2-(1-(Cyclopropylsulfonyl)-1H-pyrazol-4-yl)pyrimidin-4-yl)amino)-N-(2-fluoroethyl)-4-(((1s,4s)-4-((2-fluoroethyl)amino)cyclohexyl)amino)nicotinamide] | 0.2 | 0.1 | 5.6 | 9 | 57.4 | 0.9 | 1.6 | 19.3 | 145 | > 10000 |
| CNC[C@H]1CC[C@H](CNc2cc(Nc3ccnc(-c4cnn(S(=O)(=O)C5CC5)c4)n3)ncc2C(=O)C2CC2)CC1 [Example 89, Cyclopropyl(6-((2-(1-(cyclopropylsulfonyl)-1H-pyrazol-4-yl)pyrimidin-4-yl)amino)-4-((((1r,4r)-4-((methylamino)methyl)cyclohexyl)methyl)amino)pyridin-3-yl)methanone] | 0.2 | 0.1 | 0.5 | 0.7 | 4.9 | 0.2 | 0.1 | 0.8 | 7.9 | 532 |
| O=C(c1cnc(Nc2ccnc(-c3cnn(S(=O)(=O)C4CC4)c3)n2)cc1NCCC1(O)CC1)C1CC1 [Example 29, Cyclopropyl(6-((2-(1-(cyclopropylsulfonyl)-1H-pyrazol-4-yl)pyrimidin-4-yl)amino)-4-((2-(1-hydroxycyclopropyl)ethyl)amino)pyridin-3-yl)methanone] |  |  |  |  |  | 1.8 | 10 | 3.5 | 120 | > 10000 |
| O=C(c1cnc(Nc2ccnc(-c3cnn(S(=O)(=O)C4CC4)c3)n2)cc1NC1CCC(NCCN2CC(F)C2)CC1)C1CC1 (centres unmarked) [Example 55, Cyclopropyl(6-((2-(1-(cyclopropylsulfonyl)-1H-pyrazol-4-yl)pyrimidin-4-yl)amino)-4-((4-((2-(3-fluoroazetidin-1-yl)ethyl)amino)cyclohexyl)amino)pyridin-3-yl)methanone] |  |  |  |  |  | 1 | 1.9 | 35.7 | 85 | > 10000 |
| O=C(c1cnc(Nc2ccnc(-c3cnn(S(=O)(=O)C4CC4)c3)n2)cc1NC1CCOCC1)C1CC1 [Example 35, Cyclopropyl(6-((2-(1-(cyclopropylsulfonyl)-1H-pyrazol-4-yl)pyrimidin-4-yl)amino)-4-((tetrahydro-2H-pyran-4-yl)amino)pyridin-3-yl)methanone] |  |  |  |  |  | 5.2 | 23.1 | 602 | 543 | > 10000 |
| CC1(CO)CCN(c2cc(Nc3ccnc(-c4cnn(S(=O)(=O)C5CC5)c4)n3)ncc2F)CC1 [Example 85, (1-(2-((2-(1-(Cyclopropylsulfonyl)-1H-pyrazol-4-yl)pyrimidin-4-yl)amino)-5-fluoropyridin-4-yl)-4-methylpiperidin-4-yl)methanol] |  |  |  |  |  | 9.4 | 21.5 | 146 | 903 | > 10000 |
| CC(C)NC[C@H]1CC[C@H](CNc2cc(Nc3ccnc(-c4cnn(S(=O)(=O)C5CC5)c4)n3)ncc2C(=O)C2CC2)CC1 [Example 69, Cyclopropyl(6-((2-(1-(cyclopropylsulfonyl)-1H-pyrazol-4-yl)pyrimidin-4-yl)amino)-4-((((1r,4r)-4-((isopropylamino)methyl)cyclohexyl)methyl)amino)pyridin-3-yl)methanone] | 0.1 | 0.1 | 0.8 | 9.2 | 7.5 |  |  |  |  |  |
| CN(C)C1CCN(CCNc2cc(Nc3ccnc(-c4cnn(S(=O)(=O)C5CC5)c4)n3)ncc2C(=O)C2CC2)CC1 [Example 21, Cyclopropyl(6-((2-(1-(cyclopropylsulfonyl)-1H-pyrazol-4-yl)pyrimidin-4-yl)amino)-4-((2-(4-(dimethylamino)piperidin-1-yl)ethyl)amino)pyridin-3-yl)methanone] | 0.4 | 1.1 | 72.3 | 16.4 | 63.5 |  |  |  |  |  |
| CN(C)C[C@H]1CC[C@H](CNc2cc(Nc3ccnc(-c4cnn(S(=O)(=O)C5CC5)c4)n3)ncc2C(=O)C2CC2)CC1 [Example 58, Cyclopropyl(6-((2-(1-(cyclopropylsulfonyl)-1H-pyrazol-4-yl)pyrimidin-4-yl)amino)-4-((((1r,4r)-4-((dimethylamino)methyl)cyclohexyl)methyl)amino)pyridin-3-yl)methanone] | 0.1 | 0.1 | 0.4 | 2.4 | 3.6 |  |  |  |  |  |
| CN(C)Cc1ccc(CNc2cc(Nc3ccnc(-c4cnn(C(F)F)c4)n3)ncc2C(=O)C2CC2)cc1 [Example 16, Cyclopropyl(6-((2-(1-(difluoromethyl)-1H-pyrazol-4-yl)pyrimidin-4-yl)amino)-4-((4-((dimethylamino)methyl)benzyl)amino)pyridin-3-yl)methanone] | 2.3 | 0.4 | 13.2 | 30.8 | 176 |  |  |  |  |  |
| O=C(c1cnc(Nc2ccnc(-c3cnn(S(=O)(=O)C4CC4)c3)n2)cc1NCCCO)C1CC1 [Example 9, Cyclopropyl(6-((2-(1-(cyclopropylsulfonyl)-1H-pyrazol-4-yl)pyrimidin-4-yl)amino)-4-((3-hydroxypropyl)amino)pyridin-3-yl)methanone] | 0.7 | 2.5 | 70.7 | 479 | 528 |  |  |  |  |  |
| CC(C)Nc1cc(Nc2ccnc(-c3cnn(S(=O)(=O)C4CC4)c3)n2)ncc1C(=O)C1CC1 [Example 1, Cyclopropyl(6-((2-(1-(cyclopropylsulfonyl)-1H-pyrazol-4-yl)pyrimidin-4-yl)amino)-4-(isopropylamino)pyridin-3-yl)methanone] | 3.8 | 1.1 | 4.5 | 84.3 | 566 |  |  |  |  |  |
| O=C(c1cnc(Nc2ccnc(-c3cnn(S(=O)(=O)C4CC4)c3)n2)cc1NC1CCC(F)(CO)CC1)C1CC1 (centres unmarked) [Example 87, Cyclopropyl(6-((2-(1-(cyclopropylsulfonyl)-1H-pyrazol-4-yl)pyrimidin-4-yl)amino)-4-((4-fluoro-4-(hydroxymethyl)cyclohexyl)amino)pyridin-3-yl)methanone] |  |  |  |  |  | 2.2 | 4.3 | 25.3 | 442 | > 10000 |
| CC(=O)c1cnc(Nc2ccnc(-c3cnn(S(=O)(=O)C4CC4)c3)n2)cc1NC(C)(C)C(C)O (centres unmarked) [Example 46, 1-(6-((2-(1-(Cyclopropylsulfonyl)-1H-pyrazol-4-yl)pyrimidin-4-yl)amino)-4-((3-hydroxy-2-methylbutan-2-yl)amino)pyridin-3-yl)ethan-1-one] | 0.6 | 7.3 | 290 | 471 | 1410 |  |  |  |  |  |
| O=C(c1cnc(Nc2ccnc(-c3cnn(S(=O)(=O)C4CC4)c3)n2)cc1N[C@H]1CC[C@](O)(CO)CC1)C1CC1 [Example 86, Cyclopropyl(6-((2-(1-(cyclopropylsulfonyl)-1H-pyrazol-4-yl)pyrimidin-4-yl)amino)-4-(((1s,4s)-4-hydroxy-(4-hydroxymethyl)cyclohexyl)amino)pyridin-3-yl)methanone] | 0.2 | 0.1 | 1.9 | 4.3 | 47.6 | 0.2 | 0.3 | 2.9 | 52.9 | > 10000 |
